Assay results reported in paper PMC7211195 (Investigational New Drugs, 2019).
Several values for one entry are separate records, joined by “and”; a condition that tells them apart may be missing. Identical values can stand only once. Like-named read-outs stand apart in the source and are kept apart here.

Test: Lapatinib pharmacokinetics and uptake in rat brain tissue (BT);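 for BT corr (BT homogenate corrected), single rat: brain concentration corrected for residual brain blood by the Fridén method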;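 for BT corr (BT homogenate), single rat: brain concentration corrected for residual brain blood by the Fridén method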
Type: in vivo, rats
Experimental: This study was conducted on rats, which are a promising model to predict P-gp-based drug-drug interactions at the human BBB [15]. The animals were allowed to acclimate for one week before the beginning of the experiments. Adult male Wistar-strain rats (weight 470–525 g) were used in the study. The animals were maintained under standard breeding conditions with a 12/12 h light-dark cycle (lights on at 6.00 a.m., lights off at 6.00 p.m.) at constant room temperature (23 ± 2 °C), relative humidity (55 ± 10%) and ad libitum access to food and water. The experimental protocol for this study was reviewed and approved by the Local Ethics Committee. To obtain consistent data, the study was based on the required minimum number of animals and observation time. […] Three rats were used at each time point (n = 3). In total, the research was conducted on 66 animals (n = 33 in the experimental group and n = 33 in the control group).
Elacridar was freshly dissolved in a vehicle at an initial concentration of 20 mg/mL. […] A volume of 80 μL of blood was collected from each rat by cutting off a piece of its tail. The blood samples were collected into heparinized test tubes at the following time points: […], and they were immediately centrifuged at 2880 g for 10 min at 4 °C. The anaesthetized rats (anaesthetized by intramuscular administration of 50 mg/kg ketamine and 10 mg/kg xylazine) were prepared for cisterna magna puncture. The hair over the puncture was removed and the skin was disinfected with alcohol. The animals were placed in a recumbent position with an elevated rear part of the body. The animals’ heads were slightly flexed and immobilized with the operator’s left hand. The space between the occiput rostrally and the atlas (C1) of the spinal column caudally was gently palpated with the left thumb. A 0.7 × 20 G needle with polyethylene tubing (Terumo Poland, Warsaw, Poland) was gently inserted at an approximate angle of 80–90° through the skin with the operator’s right hand into the midsagittal region. The moment that dura mater perforation was perceptible, a small amount of CSF was found in the needle tubing. To sample additional CSF, a 1 mL insulin syringe (Becton Dickinson, Warsaw, Poland) was used to collect 80–120 μL of CSF by very gentle aspiration. Only clear CSF was collected for further analysis. […] The animals’ brains were immediately dissected, washed in 0.9% NaCl and divided along the longitudinal axis. One of the brain hemispheres was again rinsed three times with 5 mL of 0.9% NaCl, weighed and homogenized with 0.9% NaCl (4 mL per 1 g of BT) in an Ultra-Turrax homogenizer (Witko, Łódź, Poland). The homogenate was then centrifuged at 4500 g for 10 min. All samples of the rat BP, CSF, and BT homogenate supernatant were stored at −80 °C until analysis.
The chromatographic analysis was conducted using a 1260 Infinity system (Agilent Technologies, Santa Clara, USA) equipped with a Kinetex® C18 column (50 × 4.6 mm, 2.6 μm, Phenomenex, Torrance, USA), which was maintained at 35 °C. The mobile phase consisted of 0.1% formic acid (v/v) in water with 5 mM ammonium formate (solvent A) and acetonitrile with 10% phase A (v/v, solvent B). The analyte and internal standard (IS, erlotinib) were eluted using a gradient run of 10 min as follows: 95% A at 0–2 min; 95%–5% A at 2–4 min; 5% A at 4–5 min; 5%–95% A at 5–6 min; 95% A at 6–10 min. The flow rate and injection volume were set at 0.7 mL/min and 10 μL, respectively. The needle was washed for 30 s in a mixture of acetonitrile, methanol, isopropanol, water, and formic acid (50:20:15:15:0.25, v/v/v/v/v).

[1] = male, Wistar, rat, brain tissue homogenate, corrected for residual blood, po, 100 mg/kg, lapatinib p.o. 100 mg/kg alone, read-out: BT corr (BT homogenate corrected), S
[2] = male, Wistar, rat, brain tissue homogenate, corrected for residual blood, po, 100 mg/kg, lapatinib p.o. 100 mg/kg alone, read-out: BT corr (BT homogenate corrected), single rat
[3] = male, Wistar, rat, brain tissue homogenate, oral, lapatinib 100 mg/kg + elacridar, read-out: BT corr (BT homogenate), S
[4] = male, Wistar, rat, brain tissue homogenate, oral, lapatinib 100 mg/kg + elacridar, read-out: BT corr (BT homogenate), single rat

Question: With `CS(=O)(=O)CCNCc1ccc(-c2ccc3ncnc(Nc4ccc(OCc5cccc(F)c5)c(Cl)c4)c3c2)o1` [lapatinib, N-{3-Chloro-4-[(3-fluorobenzyl)oxy]phenyl}-6-[5-({[2-(methylsulfonyl)ethyl]amino}methyl)-2-furyl]-4-quinazolinamine] as the compound, how does the “BT corr (BT homogenate corrected), single rat” value (“BT corr” for short) (lapatinib p.o. 100 mg/kg alone, 1 h, 100 mg/kg) read?
Answer: The value was 62.82 ng/mL.

Question: What about the “BT corr” value (lapatinib p.o. 100 mg/kg alone, 1 h, listed as Lapatinib, 100 mg/kg) of the same compound?
Answer: Its value is 62.82 ng/mL.

Question: And the “BT corr” value (lapatinib p.o. 100 mg/kg alone, 4 h, 100 mg/kg)?
Answer: Its value is 135.24 ng/mL.

Question: What about the “BT corr” value (lapatinib p.o. 100 mg/kg alone, 4 h, listed as Lapatinib, 100 mg/kg) of the same compound?
Answer: Its value is 135.24 ng/mL.

Question: What about the “BT corr” value (lapatinib p.o. 100 mg/kg alone, 6 h, 100 mg/kg) of the same compound?
Answer: Its value is 116.18 ng/mL and 47.54 ng/mL.

Question: And the “BT corr” value (lapatinib p.o. 100 mg/kg alone, 6 h, listed as Lapatinib, 100 mg/kg)?
Answer: The value was 116.18 ng/mL and 47.54 ng/mL.

Question: What about the “BT corr” value (lapatinib p.o. 100 mg/kg alone, 8 h, 100 mg/kg) of the same compound?
Answer: Its value is 44.94 ng/mL.

Question: And the “BT corr” value (lapatinib p.o. 100 mg/kg alone, 8 h, listed as Lapatinib, 100 mg/kg)?
Answer: Its value is 44.94 ng/mL.

Question: What about the “BT corr” value (lapatinib p.o. 100 mg/kg alone, 12 h, 100 mg/kg) of the same compound?
Answer: Its value is 10.91 ng/mL.

Question: And the “BT corr” value (lapatinib p.o. 100 mg/kg alone, 12 h, listed as Lapatinib, 100 mg/kg)?
Answer: Its value is 10.91 ng/mL.

Question: And the Kp (male, Wistar, rat, brain tissue (homogenate supernatant), po, 100 mg/kg, read-out: Kp (tissue-to-plasma partition coefficient, AUC0-∞-tissue/AUC0-∞-plasma))?
Answer: The Kp was 0.036.

Question: And the concentration at 4 h (male, Wistar, rat, brain tissue homogenate, corrected for residual blood, oral, lapatinib 100 mg/kg + elacridar, 4 h, read-out: BT corr (BT homogenate), single rat)?
Answer: Its concentration at 4 h is 78.2 ng/mL.

Question: And the concentration at 6 h (male, Wistar, rat, brain tissue homogenate, corrected for residual blood, oral, lapatinib 100 mg/kg + elacridar, 6 h, read-out: BT corr (BT homogenate), single rat)?
Answer: Its concentration at 6 h is 87.3 ng/mL.

Question: And the concentration at 8 h (male, Wistar, rat, brain tissue homogenate, corrected for residual blood, oral, lapatinib 100 mg/kg + elacridar, 8 h, read-out: BT corr (BT homogenate), single rat)?
Answer: The concentration at 8 h was 91.5 ng/mL.

Question: And the concentration at 12 h (male, Wistar, rat, brain tissue homogenate, corrected for residual blood, oral, lapatinib 100 mg/kg + elacridar, 12 h, read-out: BT corr (BT homogenate), single rat)?
Answer: Its concentration at 12 h is 63.6 ng/mL.

Question: And the concentration at 24 h (male, Wistar, rat, brain tissue homogenate, corrected for residual blood, oral, lapatinib 100 mg/kg + elacridar, 24 h, read-out: BT corr (BT homogenate), single rat)?
Answer: The concentration at 24 h was 52.7 ng/mL.

Question: And the concentration at 0.25 h [1]?
Answer: Its concentration at 0.25 h is 27.9 ng/mL.

Question: And the concentration at 0.25 h [2]?
Answer: Its concentration at 0.25 h is 22.5 ng/mL.

Question: What about the concentration at 0.5 h [1] of the same compound?
Answer: The concentration at 0.5 h was 31.5 ng/mL.

Question: What about the concentration at 0.5 h [2] of the same compound?
Answer: The concentration at 0.5 h was 24 ng/mL.

Question: What about the concentration at 1 h (male, Wistar, rat, brain tissue homogenate, corrected for residual blood, po, 100 mg/kg, lapatinib p.o. 100 mg/kg alone, 1 h, read-out: BT corr (BT homogenate corrected), S) of the same compound?
Answer: Its concentration at 1 h is 55.5 ng/mL.

Question: What about the concentration at 1 h (male, Wistar, rat, brain tissue homogenate, corrected for residual blood, po, 100 mg/kg, lapatinib p.o. 100 mg/kg alone, 1 h, read-out: BT corr (BT homogenate corrected), single rat) of the same compound?
Answer: The concentration at 1 h was 48.1 ng/mL.

Question: What about the concentration at 2 h [1] of the same compound?
Answer: The concentration at 2 h was 41.4 ng/mL.

Question: What about the concentration at 2 h [2] of the same compound?
Answer: Its concentration at 2 h is 30.1 ng/mL.

Question: What about the concentration at 3 h [1] of the same compound?
Answer: Its concentration at 3 h is 111 ng/mL.

Question: What about the concentration at 3 h [2] of the same compound?
Answer: The concentration at 3 h was 139 ng/mL.

Question: What about the concentration at 4 h (male, Wistar, rat, brain tissue homogenate, corrected for residual blood, po, 100 mg/kg, lapatinib p.o. 100 mg/kg alone, 4 h, read-out: BT corr (BT homogenate corrected), S) of the same compound?
Answer: Its concentration at 4 h is 115 ng/mL.

Question: And the concentration at 4 h (male, Wistar, rat, brain tissue homogenate, corrected for residual blood, po, 100 mg/kg, lapatinib p.o. 100 mg/kg alone, 4 h, read-out: BT corr (BT homogenate corrected), single rat)?
Answer: The concentration at 4 h was 94.2 ng/mL.

Question: And the concentration at 6 h (male, Wistar, rat, brain tissue homogenate, corrected for residual blood, po, 100 mg/kg, lapatinib p.o. 100 mg/kg alone, 6 h, read-out: BT corr (BT homogenate corrected), S)?
Answer: Its concentration at 6 h is 81.9 ng/mL.

Question: What about the concentration at 8 h (male, Wistar, rat, brain tissue homogenate, corrected for residual blood, po, 100 mg/kg, lapatinib p.o. 100 mg/kg alone, 8 h, read-out: BT corr (BT homogenate corrected), S) of the same compound?
Answer: The concentration at 8 h was 66.2 ng/mL.

Question: What about the concentration at 8 h (male, Wistar, rat, brain tissue homogenate, corrected for residual blood, po, 100 mg/kg, lapatinib p.o. 100 mg/kg alone, 8 h, read-out: BT corr (BT homogenate corrected), single rat) of the same compound?
Answer: The concentration at 8 h was 87.5 ng/mL.

Question: And the concentration at 12 h (male, Wistar, rat, brain tissue homogenate, corrected for residual blood, po, 100 mg/kg, lapatinib p.o. 100 mg/kg alone, 12 h, read-out: BT corr (BT homogenate corrected), S)?
Answer: The concentration at 12 h was 44.5 ng/mL.

Question: What about the concentration at 0.25 h [3] of the same compound?
Answer: The concentration at 0.25 h was 33.1 ng/mL.

Question: And the concentration at 0.25 h [4]?
Answer: The concentration at 0.25 h was 30.7 ng/mL.

Question: What about the concentration at 0.5 h [3] of the same compound?
Answer: Its concentration at 0.5 h is 43.6 ng/mL.

Question: What about the concentration at 0.5 h [4] of the same compound?
Answer: The concentration at 0.5 h was 45.2 ng/mL.

Question: What about the concentration at 1 h (male, Wistar, rat, brain tissue homogenate, oral, lapatinib 100 mg/kg + elacridar, 1 h, read-out: BT corr (BT homogenate), S) of the same compound?
Answer: The concentration at 1 h was 79.1 ng/mL.

Question: And the concentration at 1 h (male, Wistar, rat, brain tissue homogenate, oral, lapatinib 100 mg/kg + elacridar, 1 h, read-out: BT corr (BT homogenate), single rat)?
Answer: Its concentration at 1 h is 74.9 ng/mL.
